Source: patent publication US6759410B1, “3,4-dihydro-(1H)-quinazolin-2-ones and their use as CSBP/p38 kinase inhibitors” (SmithLine Beecham Corporation, priority 1999, dated 2004)

- melting point: 236 to 238 °C
Compound: Cc1ccccc1-c1cccc2c1CNC(=O)N2c1ccccc1 [Example 14, 1-Phenyl-5-(2-methylphenyl)-3,4-dihydro-(1H)-quinazolin-2-one]
